Experimental data taken from ChEMBL document CHEMBL1154843, “Nakijiquinones J--R, sesquiterpenoid quinones with an amine residue from okinawan marine sponges” (J Nat Prod, 2010).
Calls of active or inactive are those of the source. The rule behind the calls is not given here.

Assays:
[1] = biological target: Receptor tyrosine-protein kinase erbB-2 (Homo sapiens) (UniProt P04626); assay: Inhibition of HER2 at 1 mM
[2] = biological target: Epidermal growth factor receptor (Homo sapiens) (UniProt P00533); assay: Inhibition of EGFR at 1 mM
Epidermal growth factor receptor (Homo sapiens), sequence (P00533 whole entry): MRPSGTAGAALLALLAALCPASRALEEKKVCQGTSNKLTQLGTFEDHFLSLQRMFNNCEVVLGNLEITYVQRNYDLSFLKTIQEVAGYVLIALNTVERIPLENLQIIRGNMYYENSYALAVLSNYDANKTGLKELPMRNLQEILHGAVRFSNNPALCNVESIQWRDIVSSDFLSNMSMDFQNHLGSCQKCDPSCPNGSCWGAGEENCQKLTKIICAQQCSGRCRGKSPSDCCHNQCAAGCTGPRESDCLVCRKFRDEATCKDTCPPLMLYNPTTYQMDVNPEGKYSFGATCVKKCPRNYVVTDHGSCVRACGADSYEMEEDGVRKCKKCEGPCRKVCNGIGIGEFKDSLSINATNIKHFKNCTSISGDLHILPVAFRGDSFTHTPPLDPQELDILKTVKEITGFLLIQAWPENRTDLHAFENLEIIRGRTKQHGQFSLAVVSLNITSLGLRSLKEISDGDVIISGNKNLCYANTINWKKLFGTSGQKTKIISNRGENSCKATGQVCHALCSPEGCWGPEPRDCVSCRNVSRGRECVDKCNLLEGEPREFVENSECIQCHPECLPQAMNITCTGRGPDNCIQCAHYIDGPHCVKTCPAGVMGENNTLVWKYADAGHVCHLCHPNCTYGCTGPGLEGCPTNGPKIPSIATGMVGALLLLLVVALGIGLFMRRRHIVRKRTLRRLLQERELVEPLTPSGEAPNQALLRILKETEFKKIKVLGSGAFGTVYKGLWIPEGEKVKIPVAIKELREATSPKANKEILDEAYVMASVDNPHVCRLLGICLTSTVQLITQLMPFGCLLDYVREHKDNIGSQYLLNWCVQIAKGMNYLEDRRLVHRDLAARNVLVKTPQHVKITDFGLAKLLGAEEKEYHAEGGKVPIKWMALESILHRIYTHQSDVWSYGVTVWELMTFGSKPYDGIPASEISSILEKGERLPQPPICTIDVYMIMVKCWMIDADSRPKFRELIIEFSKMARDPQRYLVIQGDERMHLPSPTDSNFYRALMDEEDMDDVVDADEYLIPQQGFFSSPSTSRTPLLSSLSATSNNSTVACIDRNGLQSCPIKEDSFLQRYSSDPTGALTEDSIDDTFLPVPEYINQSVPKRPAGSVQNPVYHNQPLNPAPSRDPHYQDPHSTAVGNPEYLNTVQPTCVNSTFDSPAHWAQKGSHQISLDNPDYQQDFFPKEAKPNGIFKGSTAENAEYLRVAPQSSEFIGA

Receptor tyrosine-protein kinase erbB-2 (Homo sapiens), sequence (P04626 whole entry): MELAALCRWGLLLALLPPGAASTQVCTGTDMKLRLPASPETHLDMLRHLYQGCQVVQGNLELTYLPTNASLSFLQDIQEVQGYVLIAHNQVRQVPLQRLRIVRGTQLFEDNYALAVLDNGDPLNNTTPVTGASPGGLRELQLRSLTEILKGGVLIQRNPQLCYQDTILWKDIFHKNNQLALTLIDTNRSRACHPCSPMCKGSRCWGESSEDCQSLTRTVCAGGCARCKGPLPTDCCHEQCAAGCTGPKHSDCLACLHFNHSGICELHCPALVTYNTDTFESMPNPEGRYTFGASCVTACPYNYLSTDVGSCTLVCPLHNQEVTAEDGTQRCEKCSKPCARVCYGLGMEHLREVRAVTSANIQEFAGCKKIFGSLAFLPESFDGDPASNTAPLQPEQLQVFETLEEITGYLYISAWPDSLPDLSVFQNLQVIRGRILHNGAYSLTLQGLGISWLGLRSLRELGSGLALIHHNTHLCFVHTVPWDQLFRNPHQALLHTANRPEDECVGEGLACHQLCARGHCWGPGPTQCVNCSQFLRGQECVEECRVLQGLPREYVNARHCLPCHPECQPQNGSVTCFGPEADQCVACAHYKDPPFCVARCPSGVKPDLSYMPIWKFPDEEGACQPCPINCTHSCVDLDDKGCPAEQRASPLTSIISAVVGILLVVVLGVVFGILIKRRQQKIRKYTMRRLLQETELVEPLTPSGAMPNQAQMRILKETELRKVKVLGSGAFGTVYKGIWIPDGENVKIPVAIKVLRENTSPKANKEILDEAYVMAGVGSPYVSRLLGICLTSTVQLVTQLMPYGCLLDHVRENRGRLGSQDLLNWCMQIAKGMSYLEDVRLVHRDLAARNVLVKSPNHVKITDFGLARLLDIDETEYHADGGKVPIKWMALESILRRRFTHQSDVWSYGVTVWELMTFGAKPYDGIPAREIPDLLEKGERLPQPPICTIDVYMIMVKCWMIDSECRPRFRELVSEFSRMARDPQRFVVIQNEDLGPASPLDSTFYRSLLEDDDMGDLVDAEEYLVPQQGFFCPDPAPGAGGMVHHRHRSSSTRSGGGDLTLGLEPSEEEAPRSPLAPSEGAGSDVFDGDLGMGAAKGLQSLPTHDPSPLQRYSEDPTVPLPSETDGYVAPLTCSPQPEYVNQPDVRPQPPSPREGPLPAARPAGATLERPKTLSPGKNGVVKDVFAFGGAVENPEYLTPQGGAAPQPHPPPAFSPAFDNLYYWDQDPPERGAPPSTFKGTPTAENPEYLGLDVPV

Structure (SMILES)	inhibition [1]	inhibition [2]
C[C@H]1CC=C2[C@@H](CCCC2(C)C)[C@]1(C)CC1=C(O)C(=O)C=C(NCCc2ccccc2)C1=O	inactive	76%
C=C1CCC[C@H]2[C@](C)(CC3=C(O)C(=O)C=C(NC[C@@H](C)CC)C3=O)[C@@H](C)CC[C@]12C	inactive	inactive
CC[C@H](C)CNC1=CC(=O)C(O)=C(C[C@@]2(C)[C@@H]3CCCC(C)(C)C3=CC[C@@H]2C)C1=O	inactive	inactive
CC1=CCC[C@H]2[C@](C)(CC3=C(O)C(=O)C=C(NCCc4ccccc4)C3=O)[C@@H](C)CC[C@]12C	inactive	inactive
CC1=CCC[C@H]2[C@](C)(CC3=C(O)C(=O)C=C(NCCS(=O)(=O)O)C3=O)[C@@H](C)CC[C@]12C	52%	> 99%
CC[C@H](C)CNC1=CC(=O)C(O)=C(C[C@]2(C)[C@@H](C)CC[C@]3(C)C(C)=CCC[C@@H]23)C1=O	inactive	inactive
CC1=CCC[C@H]2[C@](C)(CC3=C(O)C(=O)C=C(NCCC(C)C)C3=O)[C@@H](C)CC[C@]12C	66%	inactive
CC(C)CCNC1=CC(=O)C(O)=C(C[C@@]2(C)[C@@H]3CCCC(C)(C)C3=CC[C@@H]2C)C1=O	inactive	inactive
CC1=CCC[C@H]2[C@](C)(CC3=C(O)C(=O)C=C(NCC(C)C)C3=O)[C@@H](C)CC[C@]12C	59%	inactive
